Assay results published in patent publication US20140024683A1, “CHLORIDE CHANNEL AND CHLORIDE TRANSPORTER MODULATORS FOR THERAPY IN SMOOTH MUSCLE DISEASES” (priority 2011, published 2014).

Key:
[1] = system: guinea pig tracheal rings; assay: Potentiation of isoproterenol relaxation of acetylcholine contraction, guinea pig tracheal rings; details: 10 μM bumetanide
Protocol: (§1) Animal protocols were approved by the Columbia University Animal Care and Use Committee. Male Hartley guinea pigs weighing approximately 400 g were anesthetized with intraperitoneal injection of sodium pentobarbital (100 mg/kg). Trachea were removed and transferred to ice cold Krebs-Henseleit (KH) buffer of the following composition (in mM): NaCl 118, KCl 5.6, CaCl2 0.5, MgSO4 0.24, NaH2PO4 1.3, NaHCO3 25, glucose 5.6, pH 7.4. Epithelial-denuded tracheal rings were prepared using a dissecting microscope. Epithelium was removed by gently passing cotton fibers through the lumen of the tracheal rings. The rings were suspended in 4 mL-water jacketed organ baths (37° C.: Radnoti Glass Technology, Monrovia, Calif.) and connected to a Grass FT03 force transducer (Grass Telefactor, West Warwick, R.I.) using silk sutures. The transducers were coupled to the computer with BioPac hardware and data was collected using Acqknowledge 7.3.3 software (BioPac Systems, Goleta, Calif.). KH buffer was bubbled with a gas mixture of 95% oxygen and 5% carbon dioxide and buffer was exchanged every 15 minutes for 1 hour during equilibration of tracheal rings at 1 g resting tension. […].
Therefore, we tested whether the chloride channel blockers or modulation of chloride flux could be used in combination with β-agonists to potentiate their effects. […]. Therefore, a combination of treatment with compound 13 and bumetanide potentiated the relaxation effect of isoproterenol.

[2] = system: guinea pig tracheal rings; assay: Ex vivo airway smooth muscle force, prevention or relaxation of a contraction (Example 5); details: solo therapy; vs vehicle
Protocol: The chloride channel blocker NPPB and the chloride transporter blocker bumetanide were evaluated for their ability to prevent an initial contraction (n=5) (FIG. 23A) or to relax an existing contraction (n=6) (FIG. 23B).
As a proof of concept for chloride channel blockade in general, another chloride channel blocker, 5-nitro-2-(3-phenylpropylamino)-benzoic acid (NPPB) was used in an ex vivo guinea pig airway smooth muscle model.

[3] = system: guinea pig tracheal rings; assay: Relaxation of the maintenance phase of a pre-established acetylcholine contraction, guinea pig tracheal rings; details: alone; pre-contracted with EC50 acetylcholine
Protocol: as §1
Chloride channel blockers were then tested against the plateau phase of an established acetylcholine contraction. […]

[4] = system: guinea pig tracheal rings; assay: Relaxation of potassium gluconate contraction in guinea pig tracheal rings; details: 100 μM, 80 mM potassium gluconate
Protocol: as §1
Many chloride channel blockers are known to also stimulate potassium channels (Greenwood et al., 2007). Thus, we performed additional studies in the presence of a large extracellular concentration of potassium to ensure that our findings of compound 1 or 13 inhibiting a TEA-induced depolarizing contraction were not due to these compounds opening a potassium channel.

[5] = system: calcium activated chloride channel; assay: Whole cell voltage clamp, spontaneous transient inward currents (STICs) in a single guinea pig airway smooth muscle cell; assay type: cell-based; details: about 100 μM bath application after TEA; holding potential about −60 mV
Text: Epithelial denuded guinea pig tracheal rings were suspended in organ baths under 1 g resting tension with continuous digital recordings of muscle force. In separate studies, guinea pig airway smooth muscle cells were enzymatically dispersed and cultured.
Glass-bottom dishes served as a disposable recording chamber. ALA VM-8, an 8-chamber pressure-driven drug application system, was used in a still bath of extracellular salt solution. Whole-cell intracellular voltage recordings under current clamp conditions were performed with a 2-kHz Bessel filter, recording at 10 kHz using an Axopatch 200b amplifier (Axon Instruments, Foster City, Calif., USA). Electrodes were pulled using a P-97 micropipette puller from 1.5-mm OD borosilicate capillary glass (Sutter Instruments, Novato, Calif., USA). Glass electrode resistances ranged from 5 to 10 MO with intracellular solution. Whole-cell intracellular current recordings under voltage-clamp conditions were performed with a 2-kHz Bessel filter, recording at 10 kHz using an Axopatch 200b amplifier. For current measurements (FIG. 11) intracellular solutions consisted of (in mM) 140 TEA-Cl, 5 MgATP, 5 EGTA, 1 MgCl2, 10 HEPES, and 5 CaCl2 (pH 7.2). […] TEA-Cl was included in the buffer to enhance STICs which were then recorded during the addition of 100 μM niflumic acid. […] All recordings were analyzed on Clampfit 8.0 software (Molecular Devices).

Row | Compound | shift of the EC50 of isoproterenol [1] [fold] | relaxation of an existing contraction [2] | relaxation of established acetylcholine contraction [3] | percent of potassium gluconate-induced contraction at 30 minutes [4] | percent of potassium gluconate-induced contraction at 30 minutes ([4]; listed as NFA) | spontaneous transient inward currents (STICs) [5]
1 | CCCCNc1cc(C(=O)O)cc(S(N)(=O)=O)c1Oc1ccccc1 [bumetanide] | 2.4 | effective in relaxing an existing contraction | significantly relaxed an acetylcholine contraction |  |  | 
2 | O=C(O)c1cccnc1Nc1cccc(C(F)(F)F)c1 [niflumic acid] |  |  |  | 47.36%±4.6 | 47.4%±4.6 | abolishes STIC's
